A value given as a limit tells only on which side of the number the result lay.

For this experiment, the target named is T1, p38α (Homo sapiens, UniProt Q16539).
T1 construct: p38 MAP Kinases are recombinant human full-length proteins with an amino-terminal GST fusion; GST (N); purchased Upstate Biotechnology Inc; host or cells: E. coli
The experiment can be described thus: p38 MAP Kinase assay: inhibition of ATF2 phosphorylation, ELISA. The class given is biochemical. The following applies: for inhibition at 10 µM: substrate ATF2, read-out: [ENZ] P38 ALPHA, PCT INH, ELISA (10 uM;ATF2) (Percent); for IC50: ATF2 phosphorylation, read-out: [ENZ] P38 ALPHA, IC50, ELISA. From the text: Compounds of the invention are screened for the ability to inhibit ATF2 phosphorylation by p38 MAP Kinase in vitro. The ability of compounds to inhibit ATF2 phosphorylation in this in vitro assay is correlated with the inhibition of p38 MAP Kinase and TNFα expression in vivo, and is therefore an indicator of potential in vivo therapeutic activity (Raingeaud, J., et al, J. Biol. Chem., 270: 7420-7426, 1995, Brinkman, M. N., et al, J. Biol. Chem. 274: 30882-30886, 1999 and Fuchs, S. Y. et al, J. Biol. Chem. 275: 12560-12564, 2000).
Materials: All kinases and the substrate ATF2 are acquired from Upstate Biotechnology Inc. p38 MAP Kinases are recombinant human full-length proteins with an amino-terminal GST fusion, expressed in and purified from E. coli. ATF2 is a GST fusion protein containing amino acids 19-96 of human ATF2 expressed in E. coli. All proteins are aliquoted and stored at −80° C.
Methods: p38 MAP Kinase assays are performed using an assay buffer containing 25 mM HEPES, pH 7.5, 10 mM MgCl2, 2 mM DTT, 20 mM β-glycerophosphate, 0.1 mM Na3VO4, 40 μM ATP and 1.25 μM of ATF2 and in the absence or presence of 1% human serum albumin, Method I and II, respectively, with 0.4-6 ng of protein depending on the kinase used. Compounds are serially diluted in DMSO and 2 μL of test compound at 25× final concentration is used. The vehicle control receives DMSO only. Test compounds are pre-incubated with 20 μl of enzyme in kinase buffer (25 mM HEPES, pH 7.5, 10 mM MgCl2, 2 mM DTT, 20 mM β-glycerophosphate, 0.1 mM Na3VO4 in the absence or presence of 1% human serum albumin, Method I and II, respectively) at room temperature for 15 minutes. […] The reactions are incubated for 30 minutes at 37° C. and terminated by the addition of 18 μl of 200 mM EDTA. An ELISA method (I or II) is used to measure the phosphorylation of ATF2 at Thr 69. Method I: 96-well high binding plates (Corning 3369) are coated with 50 μl of kinase reaction for 1 hour at 37° C. The coated plates are washed with 200 μl washing buffer (25 mM Tris HCl, pH 8.3, 192 mM glycine, 0.1% SDS and 0.05% Tween-20) three times. The plates are then washed three times with SuperBlock in TBS (Pierce, 37535). After blocking, plates are incubated with 50 μl of rabbit anti-phospho-ATF2 antibody (Cell Signaling, 9221L, 1:500) for 30 minutes at 37° C. Plates are washed three times with washing buffer prior to incubation with 50 μl HRP-conjugated goat anti-rabbit antibody (Cell Signaling, 7074, 1:500) for 30 minutes at 37° C. Plates are then washed three times with washing buffer before incubation with 50 μl of Ultra TMB-ELISA (Pierce, 34028) for 8 minutes at room temperature. Finally, 50 ul of phosphoric acid (1 M) is added to stop reactions and plate absorbance is read at 450 nm on a SpectraMax 250 plate reader. Method II: 96-well high binding plates (Corning 3369) are coated with 400 ng of monoclonal antibody against GST-tag (Cell signaling) in 100 μl containing sodium borate (pH 8.3) for 90 minutes at 37° C. The plates are washed with 200 μl washing buffer (25 mM Tris HCl, pH 7.2, 150 mM NaCl and Tween-20) three times and blocked with 200 μl of 5% nonfat milk for 30 minutes at room temperature. The plates are washed three times with washing buffer, 50 μl of stopped kinase reaction are added to each well and incubated for 80 minutes at 37° C. The plates are washed three times with 200 μl washing buffer, and the plates are incubated with 50 μl of rabbit anti-phospho-ATF2 antibody (Cell Signaling, 9221L, 1:500) for 30 minutes at 37° C. Plates are washed three times with washing buffer prior to incubation with 50 μl HRP-conjugated goat anti-rabbit antibody (Cell Signaling, 7074, 1:500) for 30 minutes at 37° C. Plates are washed three times with washing buffer before incubation with 50 μl of Ultra TMB-ELISA (Pierce, 34028) for 25 minutes at room temperature. Finally, 50 μl of phosphoric acid (1 M) is added to stop reactions and plate absorbance is read at 450 nm on a SpectraMax 250 plate reader. […]

T1 sequence (Q16539 whole entry, the tested form may be a part): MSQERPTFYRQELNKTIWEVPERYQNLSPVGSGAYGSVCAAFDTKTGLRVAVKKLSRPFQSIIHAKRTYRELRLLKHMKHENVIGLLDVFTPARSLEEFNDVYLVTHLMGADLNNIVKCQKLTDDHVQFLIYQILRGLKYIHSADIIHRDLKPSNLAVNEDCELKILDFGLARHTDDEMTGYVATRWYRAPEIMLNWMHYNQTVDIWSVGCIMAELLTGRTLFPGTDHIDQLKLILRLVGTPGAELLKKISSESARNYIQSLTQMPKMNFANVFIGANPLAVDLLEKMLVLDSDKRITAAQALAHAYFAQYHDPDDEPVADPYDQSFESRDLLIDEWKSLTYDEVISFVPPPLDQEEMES

With `CCc1ccc(-c2cccc(C(=O)Nc3ccc(OCCN4CCOCC4)c4ccccc34)c2)cc1` [Compound B102], the inhibition at 10 µM amounted to 21% and the IC50 is above 100 µM.

For the molecule `O=C(Nc1ccc(OCCN2CCOCC2)c2ccccc12)c1ccnc(N2CCC(N3CCCC3)CC2)c1` [Compound B125], the inhibition at 10 µM was determined as 23.5%.

Take `CC1CCCN1c1cccc(C(=O)Nc2ccc(OCCN3CCOCC3)c3ccccc23)n1` (stereo not drawn) [Compound B144]: the inhibition at 10 µM turned out to be 17%. The same measure, in the same setting: next, `O=C(Nc1ccc(OCCN2CCOCC2)c2ccccc12)c1ccnc(N2CCc3ccccc3C2)c1` [Compound B121]: 31.5%. Same read-out and setting: next, `CCOc1ccc(-c2cccc(C(=O)Nc3ccc(OCCN4CCOCC4)c4ccccc34)c2)cc1` [Compound B107]: 2%. Still for that read-out and setting: next, `O=C(Nc1ccc(OCCN2CCOCC2)c2ccccc12)c1ccnc(N2CCC(CO)CC2)c1` [Compound B131]: 34%; `O=C(Nc1ccc(OCCN2CCOCC2)c2ccccc12)c1cc(C(F)(F)F)cc(C(F)(F)F)c1` [Compound B83]: 18%; `Cc1cccc(C)c1N1CCN(c2cccc(C(=O)Nc3ccc(OCCN4CCOCC4)c4ccccc34)n2)CC1` [Compound B146]: 7.5%. In the case of `O=C(Nc1ccc(OCCN2CCOCC2)c2ccccc12)c1cccc(-c2cccc(OCc3ccccc3)c2)c1` [Compound B119], the inhibition at 10 µM was 11% and the IC50 is above 100 µM. In the case of `O=C(Nc1ccc(OCCN2C(=O)CCC2=O)c2ccccc12)c1cc(F)cc(N2CCOCC2)c1` [Compound B221], the IC50 was above 10 µM. `O=C(Nc1ccc(OCCN2CCOCC2)c2ccccc12)c1cccc(N2CCC(CO)CC2)n1` [Compound B145]: the inhibition at 10 µM is 11%. On the same count and under the same terms, next, `O=C(Nc1ccc(OCCN2CCOCC2)c2ccccc12)c1cccc(-c2ccccc2Oc2ccccc2)c1` [Compound B115]: 10%. As for `Cc1cc(C(=O)Nc2ccc(OCCN3CCOCC3)c3ccccc23)cc(N2CCc3ccccc3C2)n1` [Compound B150], the inhibition at 10 µM came out at 15% and the 50% inhibitory concentration (IC50) was above 100 µM. With `O=C(Nc1ccc(OCCN2CCCCC2)c2ccccc12)c1ccnc(N2CCOCC2)c1` [Compound B22], the inhibition at 10 µM was determined as 12.5%. For `O=C(Nc1ccc(OCCN2CCOCC2)c2ccccc12)c1cccc(N2CCN(c3ccc(F)cc3)CC2)n1` [Compound B139], the inhibition at 10 µM was 7%. The same measure, in the same setting: next, `O=C(Nc1ccc(OCCN2CCOCC2)c2ccccc12)c1cccc(N2CCC(Cc3ccccc3)CC2)n1` [Compound B140]: 4%. As for `CCOc1ccccc1-c1cccc(C(=O)Nc2ccc(OCCN3CCOCC3)c3ccccc23)c1` [Compound B109], the inhibition at 10 µM was found to be 52% and the IC50 came to 4.07 µM. On to `CC(C)(C)c1ccc(-c2cccc(C(=O)Nc3ccc(OCCN4CCOCC4)c4ccccc34)c2)cc1` [Compound B106], for which the inhibition at 10 µM is 0%. Still for that read-out and setting: next, `O=C(Nc1ccc(OCCN2CCCCC2)c2ccccc12)c1ccc(-n2ccc(C(F)(F)F)n2)cc1` [Compound B10]: 12.5%; `CC(C)c1cc(C(=O)Nc2ccc(OCCN3CCOCC3)c3ccccc23)c(O)c(C(C)C)c1` [Compound B76]: 0%.

Regarding `O=C(Nc1ccc(OCCN2CCOCC2)c2ccccc12)c1cccc(-c2ccc(OC(F)(F)F)cc2)c1` [Compound B87, 4′-Trifluoromethoxy-biphenyl-3-carboxylic acid [4-(2-morpholin-4-yl-ethoxy)-naphthalen-1-yl]-amide], the inhibition at 10 µM was 29% and the IC50 was above 100 µM. For the molecule `O=C(Nc1ccc(OCCN2CCOCC2)c2ccccc12)c1cccc(N2CCCCC2)n1` [Compound B142], the inhibition at 10 µM is 33% and the IC50 was above 100 µM. In the case of `O=C(Nc1ccc(OCCN2CCOCC2)c2ccccc12)c1cc(F)cc(C(F)(F)F)c1` [Compound B77], the inhibition at 10 µM is 28%. For `CCCCc1ccc(-c2cccc(C(=O)Nc3ccc(OCCN4CCOCC4)c4ccccc34)c2)cc1` [Compound B117], the inhibition at 10 µM is 4%. `Cc1cc(C)cc(-c2cccc(C(=O)Nc3ccc(OCCN4CCOCC4)c4ccccc34)c2)c1` [Compound B113]: the inhibition at 10 µM amounted to 29% and the IC50 was above 10 µM.

For the molecule `O=C(Nc1ccc(OCCN2CCOCC2)c2ccccc12)c1cccc(N2CCOCC2)n1` [Compound B134], the inhibition at 10 µM came out at 20%.

Regarding `O=C(Nc1ccc(OCCN2CCOCC2)c2ccccc12)c1ccnc(N2CCC(N3CCCCC3)CC2)c1` [Compound B129], the inhibition at 10 µM was 19.5%. As to `O=C(Nc1ccc(OCCN2CCOCC2)c2ccccc12)c1cccc(-c2cc(Cl)cc(Cl)c2)c1` [Compound B96], the inhibition at 10 µM worked out at 31% and the IC50 was above 100 µM. Regarding `CN1CCN(CCOc2ccc(NC(=O)c3ccc(CN4CCS(=O)(=O)CC4)cc3)c3ccccc23)CC1` [Compound B13], the inhibition at 10 µM turned out to be 11.5%. On to `O=C(Nc1ccc(OCCN2CCOCC2)c2ccccc12)c1cccc(-c2cc(C(F)(F)F)cc(C(F)(F)F)c2)c1` [Compound B92], for which the inhibition at 10 µM came to 0%.

Take `C[C@@H]1CN(CCOc2ccc(NC(=O)c3ccnc(Cl)c3)c3ccccc23)C[C@H](C)O1` [Compound B8]: the inhibition at 10 µM worked out at 36.5%. Regarding `O=C(Nc1ccc(OCCN2CCOCC2)c2ccccc12)c1ccc(CN2CCS(=O)(=O)CC2)cc1` [Compound B18], the inhibition at 10 µM came to 10.5%. Same read-out and setting: next, `C[C@@H]1CN(CCOc2ccc(NC(=O)c3ccc(-n4cccn4)cc3)c3ccccc23)C[C@H](C)O1` [Compound B12]: 16.5%; `O=C(Nc1ccc(OCCN2CCOCC2)c2ccccc12)c1cccc2c1C(=O)c1ccccc1-2` [Compound B74]: 31%; `Cc1cc(C(=O)Nc2ccc(OCCN3CCOCC3)c3ccccc23)nn1C` [Compound B79]: 1%. For `O=C(Nc1ccc(OCCN2CCOCC2)c2ccccc12)c1cccc(-c2cc(Cl)cc(Cl)c2Cl)c1` [Compound B120], the inhibition at 10 µM was determined as 39% and the IC50 is above 100 µM. Take `CC(C)(C)CCNc1cccc(C(=O)Nc2ccc(OCCN3CCOCC3)c3ccccc23)n1` [Compound B147]: the inhibition at 10 µM turned out to be 12%. As for `O=C(Nc1ccc(OCc2ccco2)c2ccccc12)c1cc(F)cc(N2CCOCC2)c1` [Compound B223], the IC50 is 12.8 µM. Regarding `CSc1ccccc1-c1cccc(C(=O)Nc2ccc(OCCN3CCOCC3)c3ccccc23)c1` [Compound B116], the inhibition at 10 µM was determined as 54% and the IC50 is 2.74 µM. `O=C(Nc1ccc(OCCN2CCSCC2)c2ccccc12)c1ccc(CN2CCS(=O)(=O)CC2)cc1` [Compound B17]: the inhibition at 10 µM stood at 30.5%. On to `CCN(C)c1cc(C(=O)Nc2ccc(OCCN3CCOCC3)c3ccccc23)cc(C)n1` [Compound B157], for which the inhibition at 10 µM came out at 8%.
